Reference: paper PMC5522078, “Discovery and characterization of small molecules targeting the DNA-binding ETS domain of ERG in prostate cancer” (Oncotarget, 2017)

Key:
ERG [1] = target: T1, ERG (Homo sapiens, UniProt P11308); test: Dual reporter luciferase assay (pETS-luc) in VCaP cells; assay type: cell-based; conditions: 0.1-100 μM, 48 h treatment
T1 construct: VCaP (endogenous overexpression); endogenous in cells; host or cells: VCaP (whole cells for A2 and A17; nuclear extract for A16)
T1 sequence (P11308 33-479 limits assumed): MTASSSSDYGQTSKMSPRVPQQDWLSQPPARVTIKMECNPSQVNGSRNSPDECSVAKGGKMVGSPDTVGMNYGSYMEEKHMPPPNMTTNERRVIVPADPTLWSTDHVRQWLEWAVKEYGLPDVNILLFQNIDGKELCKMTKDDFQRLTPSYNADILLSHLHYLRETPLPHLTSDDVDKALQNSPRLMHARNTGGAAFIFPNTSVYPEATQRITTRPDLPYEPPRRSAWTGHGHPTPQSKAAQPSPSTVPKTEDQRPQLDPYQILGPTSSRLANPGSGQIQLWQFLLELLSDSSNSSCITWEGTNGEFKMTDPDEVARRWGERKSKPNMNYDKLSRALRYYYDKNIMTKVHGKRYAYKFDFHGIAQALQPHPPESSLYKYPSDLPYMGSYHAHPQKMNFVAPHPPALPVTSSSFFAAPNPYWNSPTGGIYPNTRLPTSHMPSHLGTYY
Protocol: (§1) All of the compounds selected from the virtual screening were tested in a luciferase-based ERG-responsive reporter assay, using two ERG-overexpressing cell lines, VCaP and PNT1B-ERG, previously developed in house. […] Data were normalized first to Renilla luciferase and then to the DMSO-media control on each plate, unless otherwise stated. Initial hit compounds were identified as those with an average normalized luciferase reading (firefly luciferase/Renilla luciferase readings) that is 60% or less of the average normalized luciferase reading of the DMSO-media control (i.e. 40% or more reduction of luciferase activity) at 10 μM. Representative example of raw Renilla luciferase readings presented in Supplementary Figure 9B. The luciferase assays were repeated for each lead compound under multiple concentrations (0.1 to 100 μM) to establish a dose-dependent response and an IC50 value. AR reporter assay was performed as previously described.

ERG [2] = target: T2, ERG (Homo sapiens, UniProt P11308); test: Dual reporter luciferase assay (pETS-luc) in PNT1B-ERG cells; assay type: cell-based; conditions: 0.1-100 μM, 48 h treatment
T2 construct: expressed in transfected cells; host or cells: PNT1B-ERG (immortalized prostatic epithelial PNT1B cells stably overexpressing ERG)
T2 sequence (P11308 1-479): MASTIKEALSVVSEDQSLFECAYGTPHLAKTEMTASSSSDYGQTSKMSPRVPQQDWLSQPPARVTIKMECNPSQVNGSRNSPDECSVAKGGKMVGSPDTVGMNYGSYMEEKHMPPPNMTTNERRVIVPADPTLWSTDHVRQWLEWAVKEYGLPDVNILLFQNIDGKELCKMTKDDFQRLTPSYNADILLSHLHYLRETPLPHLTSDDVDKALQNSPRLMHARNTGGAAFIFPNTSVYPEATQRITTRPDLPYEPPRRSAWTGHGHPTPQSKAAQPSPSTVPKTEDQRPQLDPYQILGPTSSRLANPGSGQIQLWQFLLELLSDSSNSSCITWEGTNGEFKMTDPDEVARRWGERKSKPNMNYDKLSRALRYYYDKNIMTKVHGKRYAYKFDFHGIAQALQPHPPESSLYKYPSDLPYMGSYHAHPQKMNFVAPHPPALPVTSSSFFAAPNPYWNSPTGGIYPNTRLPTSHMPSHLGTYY
Protocol: as §1

ERG-ETS/DNA complex = target: T3, ERG-ETS/DNA complex (Homo sapiens, UniProt P11308); test: EMSA competition, purified ERG-ETS domain and dsDNA; assay type: binding; conditions: for Disruption of recombinant ERG-ETS/DNA complex formation: up to 8 mM
T3 construct: A pET28a plasmid encoding residues 307–400 of the ERG-ETS domain; His6 (cleaved yes); made in house; host or cells: E. coli BL21 (λDE3)
T3 sequence (P11308 307-400): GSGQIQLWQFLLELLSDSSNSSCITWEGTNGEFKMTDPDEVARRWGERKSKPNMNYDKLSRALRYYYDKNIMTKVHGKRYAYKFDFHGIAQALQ
Protocol: To prepare the probe for the gel shift assay, equal amounts (200 nM) of Alexa-488 fluorophore-labeled DNAs ([NT] and its complement) were mixed, heated to 95°C for 30 minutes, and then slowly cooled to 25°C in several hours. […] The gel was scanned with Typhoon 9200 Imager equipped with blue laser to excite at 490 nm and fluorescence was measured at 520 nm. The scanned image was analyzed with Image J [48]. […] The result of this initial study was used to set the molar ratio of ERG-ETS domain:DNA in subsequent competition assays with VPC-18005. […] The data were fit to the equation for competitive binding, fb,i = [ERG]/([ERG] + KD{1 + [VPC-18005]i/KI}), where KI is the inhibitor dissociation constant and the fraction bound, fb,i, was calculated the intensity of the bound DNA band at each titration point relative to that without added VPC-18005. A control experiment was carried out by titrating with equivalent quantities of DMSO.

PNT1B-ERG cells = test: MTS cell viability assay, PNT1B-ERG; assay type: cell-based, human; conditions: 72 h
Protocol: (§2) 3-(4,5-dimethylthiazol-2-yl)-5-(3-carboxymethoxyp henyl)-2-(4-sulfophenyl)-2H-tetrazolium, inner salt (MTS). Cells were seeded at a density of 3000 cells per well (except VCaP at 20,000/well) in 100 μL of appropriate media in 96 well culture dishes. Twenty four hours later, 100 μL of medium containing vehicle control or compounds. Each treatment was prepared in triplicate. After a 72 h treatment, cellular viability was assessed using CellTiter 96 ® Aqueous One Solution Cell Proliferation Assay reagent (Promega) according to the manufacturer's instructions. Values were normalized to the DMSO control.

PC3 cells = test: MTS cell viability assay, PC3; assay type: cell-based, human; conditions: 72 h
Protocol: as §2

zebrafish embryos = test: Compound toxicity to zebrafish embryos; assay type: in vivo

Row | SMILES | IC50 (ERG [1]) [µM] | IC50 (ERG [2]) [µM] | Ki (ERG-ETS/DNA complex; 4 nM ERG-ETS domain, 1 nM dsDNA, read-out: KI, disruption of ERG-ETS/DNA complex formation) [µM] | Disruption of recombinant ERG-ETS/DNA complex formation (ERG-ETS/DNA complex) | Impact on cell cycle distribution (VCaP cells) | Effect on cell viability (MTS), PNT1B-ERG (PNT1B-ERG cells; 0.2–25 μM) | Effect on cell viability (MTS), PC3 (PC3 cells; 0.2–25 μM) | Concentration at which embryos remained viable (zebrafish embryos; 72 h) | G0–G1 phase population (VCaP cells; 5 and 10 μM) | Doses with inhibition of cell viability (MTS), PNT1B-ERG (PNT1B-ERG cells) [µM] | Doses with inhibition of cell viability (MTS), PC3 (PC3 cells) [µM] | Concentrations at which embryos exhibited toxicity (zebrafish embryos) [µM]
1 | CC(C)c1ccc(C=N/N=C2\NC(=O)[C@@H](CC(=O)O)S2)cc1 (stereo in doubt) [VPC-18005, 2-((Z)-2-(((Z)-4-isopropylbenzylidene)hydrazono)-4-oxothiazolidin-5-yl)acetic acid] | 6 | 3 | ~250 | dose-dependent disruption | did not impact cell cycle distribution | did not decrease viability | did not decrease viability | up to 50 μM | – | – | – | –
2 | COc1ccc(C(=O)CC2(O)C(=O)Nc3c(Cl)ccc(Cl)c32)cc1 (stereo not drawn) [YK-4-279, reference compound] | 16 | 5 | – | did not disrupt binding | – | – | – | – | concomitantly reduced | ≥ 5 | ≥ 5 | > 10
